Results reported in the supplement of paper PMC10331698.
± gives the standard deviation of the averaged measurements.

Legend:
Assay in all cases: level (log10 ratio to DMSO vehicle control); higher = higher biomarker level / cell amount than vehicle control
Settings in all cases: in DMSO
[1] = compound: CC(C)(C)C(=O)CC(=O)C(F)(F)C(F)(F)C(F)(F)F [(Heptafluorobutanoyl)pivaloylmethane]
Procedure: (§1)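 BioMAP Diversity Plus panel of 12 human primary cell co-culture systems (3C, 4H, LPS, SAg, BT, BF4T, BE3C, CASM3C, HDF3CGF, KF3CT, MyoF, Mphg). Compounds were added 1 h before stimulation and left for 24 h (MyoF 48 h; BT 72 h for soluble read-outs or 6 d for IgG). Biomarkers were read by ELISA, cytotoxicity by SRB, PBMC viability and proliferation by Alamar Blue. Each well value was divided by the mean of 8 DMSO control wells on the same plate and log10 transformed; duplicate blinded samples were tested at 4 concentrations.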

[2] = compound: CNS(=O)(=O)C(F)(F)C(F)(F)C(F)(F)C(F)(F)C(F)(F)C(F)(F)C(F)(F)C(F)(F)F [N-Methylperfluorooctanesulfonamide]
Procedure: as §1

[3] = compound: N=C(N)C(F)(F)C(F)(F)C(F)(F)C(F)(F)C(F)(F)C(F)(F)C(F)(F)F [Perfluorooctanamidine]
Procedure: as §1

Row | Test System | level (log10) ([1]; 6700 nM) | level (log10) ([1]; 20000 nM) | level (log10) ([1]; 60000 nM) | level (log10) ([2]; 6700 nM) | level (log10) ([2]; 20000 nM) | level (log10) ([2]; 60000 nM) | level (log10) ([3]; 6700 nM) | level (log10) ([3]; 20000 nM) | level (log10) ([3]; 60000 nM)
1 | LPS:IL-1alpha | 0.0285 ± 0.00071 | 0.0365 ± 0.0021 | 0.0745 ± 0.026 | 0.0405 ± 0.071 | 0.107 ± 0.067 | 0.124 ± 0.078 | 0.011 ± 0.024 | -0.0095 ± 0.049 | -0.003
2 | LPS:M-CSF | -0.004 ± 0.018 | 0 ± 0.0085 | -0.0125 ± 0.052 | -0.038 ± 0.018 | -0.0125 ± 0.011 | -0.017 ± 0.013 | -0.0045 ± 0.0078 | -0.011 ± 0.03 | -0.068
3 | LPS:SRB | -0.006 | -0.0095 ± 0.0021 | -0.028 ± 0.0099 | -0.0005 ± 0.00071 | -0.03 ± 0.0042 | -0.0625 ± 0.039 | -0.005 ± 0.0085 | 0.006 ± 0.011 | -0.035
4 | LPS:sPGE2 | 0.058 ± 0.013 | 0.04 ± 0.018 | 0.181 ± 0.023 | -0.011 ± 0.0028 | 0.038 ± 0.0028 | 0.0305 ± 0.032 | -0.019 ± 0.031 | -0.078 ± 0.031 | -0.06
5 | LPS:sTNF-alpha | -0.001 ± 0.0014 | 0.0195 ± 0.0064 | 0.07 ± 0.014 | 0.0045 ± 0.073 | -0.012 ± 0.1 | 0.0085 ± 0.13 | -0.0145 ± 0.071 | -0.095 ± 0.17 | -0.08
6 | SAg:CCL2/MCP-1 | -0.005 | -0.0155 ± 0.0035 | -0.0085 ± 0.05 | -0.0205 ± 0.0035 | -0.003 ± 0.011 | -0.004 ± 0.0085 | -0.004 ± 0.0014 | 0.0225 ± 0.005 | -0.015
7 | SAg:CD38 | 0.0075 ± 0.097 | 0.017 ± 0.065 | -0.0125 ± 0.00071 | -0.012 ± 0.0085 | -0.0255 ± 0.012 | -0.0515 ± 0.0064 | 0.009 ± 0.017 | 0.001 ± 0.013 | -0.074
8 | SAg:CD40 | -0.0125 ± 0.011 | -0.0335 ± 0.0021 | -0.0515 ± 0.0078 | -0.016 ± 0.02 | -0.0415 ± 0.012 | -0.0695 ± 0.025 | -0.0055 ± 0.0021 | 0.014 ± 0.023 | -0.093
9 | SAg:CD62E/E-Selectin | -0.003 ± 0.042 | -0.0235 ± 0.005 | -0.106 ± 0.04 | -0.021 ± 0.0042 | -0.0475 ± 0.019 | -0.043 ± 0.0071 | 0.004 ± 0.0014 | 0.0265 ± 0.00071 | -0.049
10 | SAg:CD69 | -0.027 ± 0.023 | -0.023 ± 0.02 | -0.007 ± 0.014 | -0.0325 ± 0.0064 | -0.0405 ± 0.022 | -0.0685 ± 0.053 | 0.006 ± 0.03 | -0.0035 ± 0.019 | -0.036
11 | SAg:CXCL8/IL-8 | -0.0195 ± 0.046 | -0.062 ± 0.024 | -0.098 ± 0.14 | -0.0435 ± 0.026 | -0.0395 ± 0.005 | -0.0275 ± 0.0035 | 0.005 ± 0.018 | 0.023 ± 0.0085 | -0.022
12 | SAg:CXCL9/MIG | -0.002 ± 0.011 | 0.0015 ± 0.00071 | 0.002 ± 0.016 | -0.006 ± 0.017 | -0.0065 ± 0.0021 | -0.013 ± 0.011 | 0 ± 0.0085 | 0.0085 ± 0.0021 | 0.007
13 | SAg:PBMC Cytotoxicity | -0.0265 ± 0.013 | -0.007 ± 0.017 | -0.124 ± 0.15 | 0.0065 ± 0.018 | 0.034 ± 0.0042 | 0.044 ± 0.045 | 0.011 ± 0.021 | 0.003 ± 0.016 | -0.263
14 | SAg:Proliferation | -0.0415 ± 0.011 | -0.033 ± 0.0057 | -0.0835 ± 0.1 | -0.0295 ± 0.026 | -0.0755 ± 0.0092 | -0.048 ± 0.1 | 0.0195 ± 0.011 | 0 ± 0.048 | -0.565
15 | SAg:SRB | -0.0035 ± 0.0092 | -0.0025 ± 0.005 | -0.031 ± 0.034 | -0.0095 ± 0.022 | -0.021 ± 0.02 | -0.0685 ± 0.036 | -0.0025 ± 0.0078 | 0.0025 ± 0.018 | -0.084
